The conditions of the series: 0.9 mg/mL in neat DMSO; 40° C.; six weeks; N=3.

Method: Sample solutions (N=3) were prepared by solubilizing the lyophilized powder directly in neat DMSO to a concentration of 0.9 mg/mL pramlintide acetate. To test formulation stability in the polar aprotic solvent, the samples (N=3) were stored in sealed glass vials at 40° C. for six weeks.

Consider Pramlintide acetate, for which the “appearance of sample solutions after storage” value is “clear and absent of precipitation and visible aggregates”.

These data come from US20170007675A1, “STABLE PEPTIDE FORMULATIONS AND METHODS FOR PREPARATION” (XERIS PHARMACEUTICALS, INC., priority 2014, published 2017).
